Columns and labels:
[1] = system: P-glycoprotein; experiment: Apparent permeability in human KBV1 cells overexpressing P-glycoprotein; format: ADME, cell-based, KB-V1
[2] = Drug level in mouse brain at 30 mg/kg, ip after 2 hrs; format: ADME, organism-based; design: dose 30 mg/kg, route intraperitoneal; conditions: read-out: Drug uptake

| SMILES | Papp [1] [×10⁻⁶ cm/s] | concentration at 2 h [2] [nM] |
| --- | --- | --- |
| CN(c1cc2cc(n1)NCCCCc1cccc(c1)C[C@@](C)(N)C(=O)OC2)S(C)(=O)=O | 11 | – |
| CN(c1cc2cc(n1)N(CC1CC1)CCCCc1cccc(c1)C[C@@](C)(N)C(=O)OC2)S(C)(=O)=O | 8 | – |
| CN(c1cc2cc(n1)N(Cc1ccccc1)CCCCc1cccc(c1)C[C@@](C)(N)C(=O)OC2)S(C)(=O)=O | 20 | – |
| CC1CCc2cccc(c2)C[C@@](C)(N)C(=O)OCc2cc(nc(N(C)S(C)(=O)=O)c2)CC1 (stereo partly drawn) | 14 | 637 |
| CC1CCc2cccc(c2)C[C@@](C)(N)C(=O)OCc2cc(cc(N(C)S(C)(=O)=O)c2)CC1 (stereo partly drawn) | 16 | – |
| CN(c1cc2cc(n1)CCCCCc1cccc(c1)C[C@@](C)(N)C(=O)OC2)S(C)(=O)=O | 29 | – |
| CN(c1cc2cc(n1)CCC(c1ccccc1)CCc1cccc(c1)C[C@@](C)(N)C(=O)OC2)S(C)(=O)=O (stereo partly drawn) | 9 | – |
